Here are results for 11 molecules from paper PMC11357404, “Cytotoxic and Anti-HSV-1 Effects of Caulerpin Derivatives” (Molecules, 2024).

The structures appear in SMILES notation. “Also recorded” adds a separate entry of the source. Bounds are passed on as bounds.

Data set [1] concerns Herpes simplex virus type 1 (HSV-1) in Vero cells. The data set is described as follows: Antiviral screening, treatment concomitant to infection (MTT). It counts as cell-based. As to conditions: HSV-1 MOI 0.2, compound at CC20, 72 h; for inhibition of HSV-1-induced cytotoxicity (in words): versus untreated control or acyclovir. As to the method:
(§1) The antiviral screening tests were performed following the method of Cheng et al., with modifications. For the anti-HSV-1 (herpes simplex virus type 1) activity of caulerpin analogs, Vero cells were used under the same conditions as described for the cytotoxicity test. The assay was divided into two steps:
Cells were infected with HSV-1 (MOI 0.2) and treated with the compound’s CC20 (concentration toxic to 20% of cells). The plates were incubated at 37 °C in 5% CO2 for 72 h, and cell viability was assessed using the MTT method.
(§2) In both assays, wells containing only cell medium were used as controls for cell growth. For positive control, wells containing medium and virus were used, and wells containing medium, virus, and acyclovir were used as a negative control.
(§3) The inhibition ratio was calculated using the following equation. % Inhibition=(OD treatment−OD positivecontrol)/(OD cell growth−OD positive control)×100 where OD = Optical density (absorbance).

In a further data set the test system is cancer cell. Details: method as in PMID 25237346. The note with it: caulerpin extracted from C. peltata; cited from earlier work.
In data set [2] the test system is Vero cells. The data set is described as follows: Cytotoxicity, MTT assay in Vero cells. Format: cell-based, Cercopithecus aethiops. The note with it: Chlorocebus sabaeus; Vero cells, MTT, 72 h, 200 to 1800 µM. As to the method: (§4) The method of Cheng et al. was followed with modifications to evaluate the cytotoxicity of caulerpin analogs 1, 2, 3, 4, 5, 7, 8, 9, 10, and 11 at concentrations ranging from 200 to 1800 µM. Vero cells (African green monkey kidney cells Cercopithecus aethiops; ATCC, Manassas, VA, USA) grown in Dulbecco’s modified medium (DMEM) supplemented with 5% fetal bovine serum (FBS), […], and 2.5 µg/mL gentamicin at 37 °C in 5% CO2 were used. Each test sample was diluted in DMEM containing 2% fetal bovine serum at six different concentrations. Vero cells were plated at a concentration of 2 × 10^4 cells/well and incubated for 24–36 h. […] After this time, the medium was discarded and 20 μL of MTT solution was added to each well. The plates were incubated for four hours at 37 °C. Subsequently, the supernatant was removed, and 150 μL of DMSO was added to each well to dissolve the formazan crystals. The plates were shaken for 10 min, followed by absorbance reading in an ELISA microplate reader at a wavelength of 540 nm.
(§5) The MTT assay was validated by constructing a trend line using linear regression in the GraphPad Prism Version 6.01 program. Assays that presented R^2 greater than 0.70 were considered appropriate. After the validation of the MTT assay, the CC50 and CC20 values of each tested analog were calculated.

Data set [3] can be described thus: Cytotoxicity, MTT assay in Vero cells. It counts as cell-based, Cercopithecus aethiops. The note with it: African green monkey (Cercopithecus aethiops); for CC50 at 72 h: Absolute CC50, Vero cells, MTT; for viability at 72 h: Vero cells, cell viability curves (Figure 2), read-out: maximum percentage of cell viability. As to the method: as §4, §5
A general note: Tetrazolium dyes change colour on reduction, which living cells bring about.

Data set [4] relates to Vero cells. Also on record: method as in doi:10.1590/S0102-695X2012005000072. As to conditions: cited from earlier work.
The test system of data set [5] is Herpes simplex virus type 1 (HSV-1) in Vero cells. Kind of data set: Antiviral screening, post-infection treatment (MTT). As to conditions: HSV-1 MOI 0.2 for 1 h, compound at CC20, 72 h, versus infected untreated control or acyclovir. It counts as cell-based. As to the method: as §1
After removing the culture medium, the HSV-1 (MOI 0.2) was added to the wells containing cells for 1 h. After this time, the cells were washed, and the tested compounds and acyclovir were added to their CC20. The plates were incubated at 37 °C in 5% CO2 for 72 h and cell viability was assessed using the MTT method.
as §2, §3

The test system of another data set is Chikungunya virus. As to conditions: cited from earlier work.

Turning to `Nc1nc2c(ncn2COCCO)c(=O)[nH]1` [Acyclovir, reference compound], the “inhibition percentage of HSV-1-induced cytotoxicity” value in data set [1] (Vero cells) came to 52.79%.

`COC(=O)/C1=C/c2c([nH]c3ccccc23)/C(C(=O)OC)=C\c2c1[nH]c1ccccc21` [Analog 1, (6E,13E)-dimethyl-5,12-dihydrocycloocta[1,2b:5,6-b′]diindol-6,13-dicarboxylate]: in the data set on cancer cell, the “inhibition of cancer cell growth” value is on record as 12%. In the data set with Vero cells [2], this molecule registered a maximal response (Emax) of 52.7 ± 1.8%. In data set [3], this molecule showed a CC50 at 72 h of 688 ± 35.2 µM. In addition, in the data set on Vero cells [4], the 50% cytotoxic concentration (CC50) is 1180 µM. Also, in data set [5], the “inhibition of HSV-1-induced cytotoxicity (in words)” value (“inhibition … (in words)” for short) is given as “higher percentages of cellular inhibition compared to the control group”. Further, the EC50 in the data set with Chikungunya virus (Chikungunya virus, read-out: EC50 inhibitory effect) was 0.8 µM. Besides, in the data set with Chikungunya virus (at 5 μM concentration), the “inhibition of viral infectivity (virucidal activity)” value is approximately 90%.

In the case of `COC(=O)C1=Cc2c(n(C)c3ccccc23)C(C(=O)OC)=Cc2c1n(C)c1ccccc21` [Analog 2, (6E,13E)-Dimethyl-5,12-dimethyl-5,12 dihydrocycloocta[1,2 b: 5,6-b′]diindol-6,13-dicarboxylate], the Emax in the data set on Vero cells [2] was 68.4 ± 0.2%. Moreover, in data set [3], the CC50 at 72 h was found to be 524 ± 19.3 µM and the viability at 72 h is less than 75%.

With `CCn1c2c(c3ccccc31)C=C(C(=O)OC)c1c(c3ccccc3n1CC)C=C2C(=O)OC` [Analog 3, (6E,13E)-Dimethyl-5,12-diethyl-5,12 dihydrocycloocta[1,2 b: 5,6-b′]diindole-6,13-dicarboxylate], in the data set with Vero cells [2], the Emax was found to be 51.5 ± 0.9%. The molecule further returned a CC50 at 72 h in data set [3] of 548 ± 38.8 µM. Further, the figures for the “inhibition … (in words)” value in data set [5] and in data set [1] were “higher percentages of cellular inhibition compared to the control group” and “significant inhibition”, respectively.

Regarding `C=CCn1c2c(c3ccccc31)C=C(C(=O)OC)c1c(c3ccccc3n1CC=C)C=C2C(=O)OC` [Analog 4], the maximum response (Emax) in the data set on Vero cells [2] turned out to be 70.1 ± 1.1%. In addition, in data set [3], the CC50 at 72 h is 628 ± 69.8 µM and the viability at 72 h is less than 75%.

For `COC(=O)C1=Cc2c(n(Cc3ccccc3)c3ccccc23)C(C(=O)OC)=Cc2c1n(Cc1ccccc1)c1ccccc21` [Analog 6, (6E,13E)-Dimethyl-5,12-dinzyl 5,12-dihydrocycloocta[1,2b:5,6-b′]diindol-6,13-dicarboxylate], in the data set with Vero cells [2], the Emax came out at 74.1 ± 1.8%. Also, in data set [3], the cytotoxic concentration (CC50) at 72 h was determined as 891 ± 87.8 µM. In addition, the “inhibition … (in words)” value in data set [5] is on record as “higher percentages of cellular inhibition compared to the control group”; in data set [1], “significant inhibition”.

Regarding `O=C(O)C1=Cc2c([nH]c3ccccc23)C(C(=O)O)=Cc2c1[nH]c1ccccc21` [Analog 9, (6E,13E)-5,12-Dihydrocycloocta[1,2b:5,6-b′]diindol-6,13-dicarboxylic acid], the maximum response (Emax) in the data set on Vero cells [2] was 62.6 ± 0.7%. In data set [3], this molecule gave a CC50 at 72 h of 1040 ± 62.4 µM.

In the data set with Vero cells [2], `Cn1c2c(c3ccccc31)C=C(C(=O)O)c1c(c3ccccc3n1C)C=C2C(=O)O` [Analog 10, (6E,13E)-5,12-Dimethyl-5-dihydrocycloocta[1,2b:5,6-b’]diindol-6,13-dicarboxylic acid] had a maximum response (Emax) of 71.8 ± 0.3%. In data set [3], the 50% cytotoxic concentration (CC50) at 72 h turned out to be 679 ± 38.3 µM. For the same molecule, the “inhibition … (in words)” value in data set [5] was “higher percentages of cellular inhibition compared to the control group; also recorded: antiviral effects statistically similar to acyclovir”.

Molecule `CCn1c2c(c3ccccc31)C=C(C(=O)O)c1c(c3ccccc3n1CC)C=C2C(=O)O` [Analog 11, (6E,13E)-5,12-Diethyl-5,12-dihydrocycloocta[1,2b:5,6-b′]diindol-6,13-dicarboxylic acid] displayed a maximum response (Emax) in the data set on Vero cells [2] of 62.7 ± 0.8%. Besides, the CC50 at 72 h in data set [3] turned out to be 1000 ± 41.6 µM. Further, the “inhibition … (in words)” value is listed as “higher percentages of cellular inhibition compared to the control group; also recorded: antiviral effects statistically similar to acyclovir” in data set [5] and “significant inhibition; also recorded: efficacy similar to the antiviral agent acyclovir” in data set [1].

Consider `C=CCn1c2c(c3ccccc31)C=C(C(=O)O)c1c(c3ccccc3n1CC=C)C=C2C(=O)O` [Analog 12, (6E,13E)-5,12-Diallyl-5,12-dihydrocycloocta[1,2b:5,6-b′]diindol-6,13-dicarboxylic acid], for which the maximal effect (Emax) in the data set with Vero cells [2] is 44.5 ± 1.3%. Moreover, it took 664 ± 55.3 µM to reach half-maximal cytotoxicity in data set [3] (CC50 at 72 h). Moreover, the results for the “inhibition … (in words)” value in data set [5] and in data set [1] were “higher percentages of cellular inhibition compared to the control group” and “significant inhibition; also recorded: efficacy similar to the antiviral agent acyclovir”, respectively.

As for `O=C(O)C1=Cc2c(n(Cc3ccccc3)c3ccccc23)C(C(=O)O)=Cc2c1n(Cc1ccccc1)c1ccccc21` [Analog 13, (6E,13E)-5,12-Dibenzyl-5,12-dihydrocycloocta[1,2 b: 5,6-b′]diindol-6,13-dicarboxylic acid], the Emax in the data set on Vero cells [2] amounted to 41 ± 1.2%. Further, half-maximal cytotoxicity in data set [3] (CC50 at 72 h) was put at 494 ± 51.4 µM.

For orientation: Emax means the greatest response seen or fitted, relative to the assay's reference. The CC50 is the concentration that lowers cell viability or growth by half. The term EC50 denotes the concentration that produces a half-maximal response. By viability is commonly meant a per cent measure of how many cells are alive, often set against a control.
